Measured values from ChEMBL document CHEMBL6078646, “Target Ligand Separation and Identification of Isoforsythiaside as a Histone Lysine-Specific Demethylase 1 Covalent Inhibitor Against Breast Cancer Metastasis” (J Med Chem, 2024).
The source made the active and inactive calls. The calls are words filed in the database; no cut-off is given here.

Columns and labels:
[1] = target: T1, Lysine-specific histone demethylase 1A (Homo sapiens, UniProt O60341); assay: Inhibition of recombinant His-tagged LSD1 (157 to 852 residues) (unknown origin) expressed in Escherichia coli BL21 (DE3) cells using H3K4me2 peptide as substrate incubated for 30 mins by fluorescence microplate reader analysis
[2] = Toxicity in female Balb/c mouse assessed as effect on WBC level at 50 mg/kg, ip administered every other day for 7 times; type: organism-based; settings: in vivo
[3] = Toxicity in female Balb/c mouse assessed as effect on hemoglobin level at 50 mg/kg, ip administered every other day for 7 times; type: organism-based; settings: in vivo
[4] = Toxicity in female Balb/c mouse assessed as effect on creatinine level at 50 mg/kg, ip administered every other day for 7 times; type: organism-based; settings: in vivo
[5] = Toxicity in female Balb/c mouse assessed as histological changes in lung at 50 mg/kg, ip administered every other day for 7 times by H and E staining based analysis; type: organism-based; settings: in vivo
[6] = Toxicity in female Balb/c mouse assessed as histological changes in kidney at 50 mg/kg, ip administered every other day for 7 times by H and E staining based analysis; type: organism-based; settings: in vivo
[7] = Retention time of the compound by HPLC-MS/MS analysis; type: physicochemical
MDA-MB-231 [8] = assay: Inhibition of cell invasion in human MDA-MB-231 cells assessed as reduction in number of invasive cells at 4 to 32 uM incubated for 24 hrs by phase contrast microscopy Transwell assay; type: functional, cell-based; settings: dose 4-32 µM
MDA-MB-231 [9] = assay: Inhibition of epithelial to mesenchymal transition in human MDA-MB-231 cells assessed as upregulation of E-cadherin protein expression by Western blotting analysis; type: functional, cell-based; settings: dose 0-32 µM
MDA-MB-231 [10] = assay: Antimetastatic activity against human MDA-MB-231 cells expressing luciferase xenografted in female Balb/c nude mouse assessed as reduction in fluorescence intensity in lungs at 12 mg/kg, ip administered every 3 days and measured on day 15 by bioluminescence imaging analysis relative to control; type: functional; set-up: scale not given: the % may be the effect or the level left; settings: time 15 day
MDA-MB-231 [11] = assay: Antimetastatic activity against human MDA-MB-231 cells expressing luciferase xenografted in female Balb/c nude mouse assessed as reduction in fluorescence intensity in lungs at 50 mg/kg, ip administered every 3 days and measured on day 15 by bioluminescence imaging analysis relative to control; type: functional; set-up: scale not given: the % may be the effect or the level left; settings: time 15 day
MDA-MB-231 [12] = assay: Antimetastatic activity against human MDA-MB-231 cells expressing luciferase xenografted in female Balb/c nude mouse assessed as reduction in number of metastatic nodules in the lung at 50 mg/kg, ip administered every 3 days and measured after 30 days by H and E staining based histopathological analysis relative to control; type: functional; set-up: scale not given: the % may be the effect or the level left; settings: time 30 day
MDA-MB-231 [13] = assay: Antimetastatic activity against human MDA-MB-231-Luc cells xenografted in female Balb/c nude mouse assessed as smaller metastatic nodules in lung at 12 to 50 mg/kg, ip administered every 3 days and measured after 30 days by H and E staining based analysis; type: functional, organism-based; settings: dose 12-50 mg/kg, time 30.0 day
[14] = Toxicity in female Balb/c nude mouse xenografted with human MDA-MB-231 cells expressing luciferase assessed as abnormalities liver at 12 to 50 mg/kg, ip administered every 3 days and measured after 30 days by H and E staining based analysis; type: organism-based; settings: in vivo, 720 h, dose 12-50 mg/kg, time 30 day
[15] = Toxicity in female Balb/c nude mouse xenografted with human MDA-MB-231 cells expressing luciferase assessed as abnormalities spleen at 12 to 50 mg/kg, ip administered every 3 days and measured after 30 days by H and E staining based analysis; type: organism-based; settings: in vivo, 720 h, dose 12-50 mg/kg, time 30 day
[16] = Toxicity in female Balb/c nude mouse xenografted with human MDA-MB-231 cells expressing luciferase assessed as abnormalities kidney at 12 to 50 mg/kg, ip administered every 3 days and measured after 30 days by H and E staining based analysis; type: organism-based; settings: in vivo, 720 h, dose 12-50 mg/kg, time 30 day
[17] = target: T1, Lysine-specific histone demethylase 1A; assay: Binding affinity to LSD1 (unknown origin) assessed as dissociation constant by Microscale thermophoresis assay
[18] = target: T1, Lysine-specific histone demethylase 1A; assay: Binding affinity to LSD1 (unknown origin) assessed as thermal stability preincubated for 30 mins followed by incubation under 37 to 52 degreeC for 5 mins by CETSA; settings: time 35.0 min
MDA-MB-231 [19] = assay: Effect on H3K4me2 protein expression in LSD1 knockout human MDA-MB-231 cells at 16 uM by Western blot analysis; type: functional, cell-based
MDA-MB-231 [20] = assay: Effect on E-cadherin protein expression in LSD1 knockout human MDA-MB-231 cells at 16 uM by Western blot analysis; type: functional, cell-based
MDA-MB-231 [21] = assay: Inhibition of cell invasion in LSD1 knockout human MDA-MB-231 cells at 16 uM incubated for 24 hrs by phase contract microscopy based transwell assay; type: functional
Homo sapiens = species on record: Homo sapiens; assay: Binding affinity to recombinant LSD1 Ser817A mutant (unknown origin) assessed as protection of pronase-dependent degradation at 15 to 75 uM preincubated for 30 mins followed by pronase addition and measured after 30 mins by DARTS assay; settings: dose 15-75 µM, time 60.0 min
MDA-MB-231 [22] = assay: Effect on LSD1 nuclear localization in human MDA-MB-231 cells transfected with LSD1 fluorescence antibody by fluorescence based analysis; type: functional, cell-based
MDA-MB-231 [23] = assay: Induction of LSD1 degradation in human MDA-MB-231 cells incubated for 12 hrs by Western blotting analysis; type: cell-based
[24] = target: T1, Lysine-specific histone demethylase 1A; assay: Stabilization of LSD1 in human MDA-MB-231 cells incubated for 24 hrs in presence of cycloheximide by Western blotting analysis; type: cell-based
MDA-MB-231 [25] = assay: Inhibition of Twist1 production in human MDA-MB-231 cells by Western blotting analysis; type: functional, cell-based
MDA-MB-231 [26] = assay: Upregulation of RBMS3 mRNA level in human MDA-MB-231 cells by qRT-PCR analysis; type: functional, cell-based; settings: dose 4-32 µM
MDA-MB-231 [27] = assay: Antimetastatic activity against human MDA-MB-231 cells expressing luciferase xenografted in female Balb/c nude mouse assessed as reduction in lung metastasis at 12 to 50 mg/kg, ip administered every 3 days and measured on day 30 by bioluminescence imaging analysis; type: functional, organism-based; settings: dose 12-50 mg/kg, time 30.0 day
[28] = Toxicity in female Balb/c nude mouse xenografted with human MDA-MB-231 cells expressing luciferase assessed as appearance of heart lesions at 12 to 50 mg/kg, ip administered every 3 days and measured after 30 days by H and E staining based analysis; type: organism-based; settings: in vivo, 720 h, dose 12-50 mg/kg, time 30 day
[29] = Toxicity in female Balb/c nude mouse xenografted with human MDA-MB-231 cells expressing luciferase assessed as appearance of spleen lesions at 12 to 50 mg/kg, ip administered every 3 days and measured after 30 days by H and E staining based analysis; type: organism-based; settings: in vivo, 720 h, dose 12-50 mg/kg, time 30 day
[30] = target: T1, Lysine-specific histone demethylase 1A; assay: Inhibition of LSD1 (unknown origin) activity measured after 80-fold dilution by dilution assay
[31] = target: T1, Lysine-specific histone demethylase 1A; assay: Non-competitive inhibition of LSD1 (unknown origin) in presence of FAD by Lineweaver-Burk plot analysis
MDA-MB-231 [32] = assay: Upregulation of H3K4me1 protein expression in human MDA-MB-231 cells by Western blot analysis; type: functional, cell-based; settings: dose 4-32 µM
MDA-MB-231 [33] = assay: Upregulation of H3K4me2 protein expression in human MDA-MB-231 cells by Western blot analysis; type: functional, cell-based; settings: dose 4-32 µM
MDA-MB-231 [34] = assay: Induction of LSD1 degradation in human MDA-MB-231 cells at 4 to 32 uM in presence of MG132 by Western blot analysis; type: cell-based; settings: dose 4-32 µM
MDA-MB-231 [35] = assay: Upregulation of RBMS3 promoter level in human MDA-MB-231 cells by chromatin immunoprecipitation assay; type: functional, cell-based

For `C[C@@H]1O[C@H](OC[C@H]2O[C@@H](OCCc3ccc(O)c(O)c3)[C@H](O)[C@@H](OC(=O)/C=C/c3ccc(O)c(O)c3)[C@@H]2O)[C@H](O)[C@H](O)[C@H]1O`, the IC50 [1] was 1.58 µM, the Activity [2] was “Non-toxic” and the Activity [3] was “Non-toxic”. The Activity [4] was “Non-toxic”, the Activity [5] was “Non-toxic” and the Activity [6] was “Non-toxic”. For the same compound, the Retention_time [7] was 18.4 min, the inhibition (MDA-MB-231 [8]) was “Active” and the inhibition (MDA-MB-231 [9]) was “Dose-dependent-effect”. For the same compound, the Activity (MDA-MB-231 [10]) was 32.9%, the Activity (MDA-MB-231 [11]) was 73.3% and the Activity (MDA-MB-231 [12]) was 52.5%. The Activity (MDA-MB-231 [13]) was “Active”, the Activity [14] was “Non-toxic” and the Activity [15] was “Non-toxic”. For the same compound, the Activity [16] was “Non-toxic”, the Kd [17] was 5.19 µM and the Activity [18] was “Active”. For the same compound, the Activity (MDA-MB-231 [19]) was “inactive”, the Activity (MDA-MB-231 [20]) was “inactive” and the inhibition (MDA-MB-231 [21]) was “Active; No Significant Difference With Lsd1 Knockout Control Group”. For the same compound, the Activity (Homo sapiens) was “inactive”, the Activity (MDA-MB-231 [22]) was “inactive” and the Activity (MDA-MB-231 [23]) was “Active”. The Activity [24] was “Active”, the inhibition (MDA-MB-231 [25]) was “Dose-dependent-effect” and the Activity (MDA-MB-231 [26]) was “Dose-dependent-effect”. The Activity (MDA-MB-231 [27]) was “Active”, the Activity [28] was “Non-toxic” and the Activity [29] was “Non-toxic”. For the same compound, the inhibition [30] was “Active; Compound Exerts Inhibition In An Irreversible Manner”, the inhibition [31] was “Active” and the Activity (MDA-MB-231 [32]) was “Dose-dependent-effect”. The Activity (MDA-MB-231 [33]) was “Dose-dependent-effect”, the Activity (MDA-MB-231 [34]) was “inactive” and the Activity (MDA-MB-231 [35]) was “Active”.
